Measurements published in US9636324B2, “Use of 15-benzylidence-14-deoxy-11, 12 -dehyroandrographolide derivative in manufacture of medicaments for protecting liver and anti-hepatitis C virus” (Zhengzhou University, priority 2012, dated 2017).

Assays:
MDBK (NBL-1) cells = experiment: MTT assay for cytotoxicity; type: cell-based, bovine
Protocol: The drug-containing medium is added and further incubated for 48 h. MTT is added (5 mg/mL) at 20 μL/well and cultured for 4 h, the supernatant is discarded and 150 μL DMSO is added, then the plate is shaken for 10 minutes and the absorbance is determined using a microplate reader using the wavelength 570 nm and a reference wavelength 450 nm. The cell survival rate is calculated after treatment of compounds: cell survival rate (%)=drug group A value/cell control group A value×100%, and the results are shown in FIG. 10. Cell proliferation inhibition rate (%)=100%−survival rate (%), half maximal (50%) toxic concentration (TC50) is calculated according to Reed-Muench method.

[1] = tested on: bovine viral diarrhea virus (BVDV-AV69); experiment: CPE observation of effects on cytopathy caused by BVDV in MDBK cells; conditions: for antiviral effect compared with AD / pharmaceutical effect against cytopathy caused by virus compared with ribavirin: BVDV in MDBK cells; for TI value (therapy index, TC50/IC50): MDBK cells, BVDV-AV69, TC50 from MTT, IC50 from CPE
Protocol: Pharmaceutical effects of drugs of the invention against cytopathy caused by inoculation of BVDV virus are investigated using MDBK (NBL-1) cells (purchased from Chinese Academy of Science's Shanghai Center for Type Culture Collection) and bovine viral diarrhea virus (BVDV-AV69) (purchased from China Institute of Veterinary Drugs Control). Ribavirin (R; Henan RunHong Pharmaceutical Co., Ltd; batch number: E0909604) is used as positive drug control. MDBK cells are prepared as a suspension (1×10^5/mL) in RPMI1640 culture medium which contains 10% in volume fetal bovine serum (Zhejiang Tianhang Biotechnology Co., Ltd; batch number: 100524), 100 μg/mL streptomycin (Shenzheng Huayao Nanfang Pharmaceutical Co., Ltd; batch number: N09081), 100 U/mL penicillin (North China Pharmaceutical Co., Ltd; batch number: E0909604), and are seeded in 96 well plates (Costar, US) at 200 μL/well, placed in an incubator (Binder, Germany) at 37° C. with 5% CO2 to culture the cell. In 24 h when cells grow into a single layer, virus solution of 100 TCID50 (TCID50=10^−2.5) is added and incubated for 1.5 h. Maintenance medium with the drug is added at 200 μL/well after 3×PBS washes.
After digestion of MDBK cells with trypsin, cells with a concentration of 1×10^5/mL are seeded into 96 well plates at 200 μL/well, placed in an incubator at 37° C. with 5% CO2 for 24 h. After growing into a single layer, cells are attacked using 100 TCID50 (TCID50=10^−2.5) virus and incubated for 1.5 h. The virus-containing maintenance medium is discarded, and cells are washed with PBS, followed by addition of drug-containing maintenance medium with different concentrations, and incubation in 5% CO2 at 37° C. Normal cell control, virus control, drug treatment and ribavirin treatment groups are set. The cytopathy developing status is recorded everyday by observing under an inverted microscope.

[2] = tested on: mice with ConA induced liver damage; experiment: ConA induced immunological liver damage model in mice; type: in vivo, Kunming mice; conditions: for protective effect against liver damage induced by ConA (summary): mice, intragastric, 3 days
Protocol: Kunming mice of clean grade (male, weight 20±2 g, supplied by the Laboratory Animal Center, Henan Province) are randomly divided into groups with 6 mice in each group. Bifendate (Xinchang Pharmaceutical Factory of Zhejiang Pharmaceutical Co., Ltd, 200 mg/kg) is used as positive control, andrographolide (AD) is provided by Furen Pharmaceutical Group Co., Ltd, and the test compounds are synthesized by the inventors with purities higher than 99.0%. Normal control group and model group are intragastrically given 0.5% sodium carboxymethylcellulose (CMC-Na), and test groups are given 0.5% CMC-Na suspensions with AD (0.88 mmol/kg), and low dosage (0.66 mmol/kg) and high dosage (0.88 mmol/kg) of compound A, B and C, respectively. The drugs are given for 3 days. One hour after the last administration, all mice except those in the normal control group are injected with a single dose of ConA (20 mg/kg) through the caudal vein. After 8 h, the eyeball is enucleated to collect blood, which is centrifuged at 3000 rpm for 15 min to separate serum. ALT and AST are tested according to the kit specification, respectively (Nanjing Jiancheng Bioengineering Institute). The left lobe of liver is taken to prepare 10% homogenate using physiological saline, MDA is determined according to the kit specification (Nanjing Jiancheng Bioengineering Institute). To 50 μL liver homogenate is added 2 mL of 0.5 mol/L KOH-methanol solution and kept at 50° C. water bath to isomerize for 20 minutes, then absorbance (A value) is measured at 278 nm, using the A value per mL of homogenate to represent the PGE2 content. Experimental data are expressed as average±standard deviation (X±s), analyzed with SPSS 11.5 statistic software, with P<0.05 meaning significant difference.
Kunming mice of clean grade (male, weight 20±2 g) are randomly divided into normal group, model group, bifendate (Zhejiang Wanbang Pharmaceutical Co., Ltd) positive control group (200 mg/kg), AD group (0.88 mmol/kg), low dosage group (0.66 mmol/kg) and high dosage (0.88 mmol/kg) group of compound D. ALT, AST, and MDA assay kits are purchased from Nanjing Jiancheng Bioengineering Institute. Other agents, drugs and experimental methods are the same as in EXAMPLE 1.
In experimental investigation of both models, the following grouping method is used: Kunming mice of clean grade (male, weight 20±2 g) are randomly divided into normal group, model group, bifendate group (200 mg/kg), AD group (0.88 mmol/kg), low dosage group (0.66 mmol/kg) and high dosage group (0.88 mmol/kg) of compound E, with 8 mice in each group. Other agents, drugs and experimental methods are the same as in EXAMPLE 1 and in EXAMPLE 4, respectively.

[3] = tested on: mice with carbon tetrachloride induced liver damage; experiment: Carbon tetrachloride induced chemical liver damage model in mice; type: in vivo, Kunming mice; conditions: for protective effect against liver damage induced by carbon tetrachloride (summary): mice, intragastric, 3 days
Protocol: Kunming mice of clean grade (male, weight 20±2 g), after adaptively fed for 3 days, are randomly divided into normal group, model group, bifendate positive control group (200 mg/kg), AD group (0.88 mmol/kg), low dosage group (0.66 mmol/kg) and high dosage group (0.88 mmol/kg) of compound A, B, C and D, with 8 mice in each group. Positive group and each test group are intragastrically given with respective suspension prepared with 0.5% CMC-Na, and normal group and model group are given with 0.5% CMC-Na. The drugs are given for 3 days, and 1 h after the last administration, all mice except those in the normal group are intraperitoneally injected with a single dose of 0.3% carbon tetrachloride in peanut oil (0.1 mL/10 g). After 16 h, the eyeball of the mice in each group is enucleated to collect blood, which is centrifuged at 3000 rpm for 15 min to separate serum. ALT and AST activities are tested respectively (Nanjing Jiancheng Bioengineering Institute). The left lobe of liver is taken to prepare 10% homogenate using physiological saline, MDA (Nanjing Jiancheng Bioengineering Institute) and PGE2 contents are determined. Experimental data are expressed as average±standard deviation (X±s), analyzed with SPSS 11.5 statistic software, with P<0.05 meaning there is a significant difference. Other agents, drugs and experimental methods are the same as in EXAMPLE 1. In experimental investigation of both models, the following grouping method is used: Kunming mice of clean grade (male, weight 20±2 g) are randomly divided into normal group, model group, bifendate group (200 mg/kg), AD group (0.88 mmol/kg), low dosage group (0.66 mmol/kg) and high dosage group (0.88 mmol/kg) of compound E, with 8 mice in each group. Other agents, drugs and experimental methods are the same as in EXAMPLE 1 and in EXAMPLE 4, respectively.

[4] = high dosage 0.88 mmol/kg vs AD 0.88 mmol/kg, P<0.05
[5] = high dosage 0.88 mmol/kg, P<0.01
[6] = low dosage 0.66 mmol/kg, P<0.05 (D), P<0.01 (E)
[7] = dosage groups not distinguished (0.66 and 0.88 mmol/kg), P<0.01
[8] = dosage groups not distinguished, P<0.01
[9] = high dosage 0.88 mmol/kg, P<0.05
[10] = low dosage 0.66 mmol/kg vs AD 0.88 mmol/kg, P<0.05
[11] = low dosage 0.66 mmol/kg, P<0.01

C=C1CCC2C(C)(COC(=O)c3cccnc3)C(OC(=O)c3cccnc3)CCC2(C)C1C=CC1=CC(=Cc2ccc(Cl)cc2)OC1=O (stereo not shown) [Compound D, 15-p-chlorobenzylidene-3,19-nicotinate-14-deoxy-11,12-dehydroandrographolide]
cytotoxicity to MDBK cells (MDBK (NBL-1) cells; 0-7.5 μmol/L, 48 h): do not show obvious cytotoxcity | antiviral effect compared with AD [1]: better antiviral effect than AD | pharmaceutical effect against cytopathy caused by virus compared with ribavirin [1]: better than ribavirin | TI value (therapy index, TC50/IC50) [1]: >127.6 | PGE2 content in liver homogenate relative to normal group ([2]; high dosage 0.88 mmol/kg): close to that of normal group | enzyme (ALT, AST) lowering effect compared to AD group [2, 4]: obviously increased abilities to lower the enzymes | ALT activity in serum vs model group [2, 5]: notably decreased | AST activity in serum vs model group [2, 5]: notably decreased | MDA content in liver homogenate vs model group [2, 5]: significantly reduce | PGE2 content in liver homogenate vs model group [2, 5]: significantly reduce | ability against liver lipid peroxidation compared with AD group ([2]; high dosage 0.88 mmol/kg, P<0.01 (B, C), P<0.05 (D)): obviously increased abilities | PGE2 content in liver homogenate vs model group ([2]; low dosage 0.66 mmol/kg, P<0.05 (A), P<0.01 (D)): significantly reduce | ALT activity in serum vs model group [2, 6]: notably decreased | AST activity in serum vs model group [2, 6]: notably decreased | MDA content in liver homogenate vs model group ([2]; low dosage (printed 0.66 mol/kg), P<0.01): significantly reduce | protective effect against liver damage induced by ConA (summary) [2]: significant protective effect | ALT activity in serum vs model group [3, 7]: notably suppress the increase | AST activity in serum vs model group [3, 7]: notably suppress the increase | MDA level in liver homogenate vs model group [3, 8]: effectively reduce | PGE2 level in liver homogenate vs model group [3, 8]: effectively reduce | magnitude of decrease in ALT activity compared to AD group [3, 4]: significantly better | magnitude of decrease in AST activity compared to AD group [3, 4]: significantly better | PGE2 content compared to AD group [3, 9]: notably lower | ability to reduce lipid peroxide level in liver homogenate compared to AD group [3, 9]: stronger ability to reduce the lipid peroxide level | magnitude of decrease in ALT activity compared to AD group [3, 10]: significantly better | magnitude of decrease in AST activity compared to AD group [3, 10]: significantly better | PGE2 content compared to AD group ([3]; low dosage 0.66 mmol/kg, P<0.05): notably lower | protective effect against liver damage induced by carbon tetrachloride (summary) [3]: protective effect

C=C1CCC2C(C)(COC(=O)CCC(=O)O)C(OC(=O)CCC(=O)O)CCC2(C)C1C=CC1=CC(=Cc2ccc(Cl)cc2)OC1=O (stereo not shown) [Compound E]
cytotoxicity to MDBK cells (MDBK (NBL-1) cells; 0-7.5 μmol/L, 48 h): do not show obvious cytotoxcity | cytotoxicity to MDBK cells (MDBK (NBL-1) cells; 30 μmol/L): shows no cytotoxcity | antiviral effect compared with AD [1]: better antiviral effect than AD | pharmaceutical effect against cytopathy caused by virus compared with ribavirin [1]: better than ribavirin | TI value (therapy index, TC50/IC50) [1]: >250 | ALT activity in serum compared with AD group [2, 4]: notably lower than AD group | AST activity in serum compared with AD group [2, 4]: notably lower than AD group | ALT activity in serum vs model group [2, 5]: notably decrease | AST activity in serum vs model group [2, 5]: notably decrease | ALT activity in serum compared with AD group [2, 10]: notably lower than AD group | AST activity in serum compared with AD group [2, 10]: notably lower than AD group | ALT activity in serum vs model group [2, 6]: notably decrease | AST activity in serum vs model group [2, 6]: notably decrease | protective effect against liver damage induced by ConA (summary) [2]: significant protective effect | magnitude of decrease in ALT activity compared to AD group [3, 4]: notably lower | magnitude of decrease in AST activity compared to AD group [3, 4]: notably lower | ALT activity in serum vs model group [3, 5]: notably decrease | AST activity in serum vs model group [3, 5]: notably decrease | ALT activity in serum vs model group [3, 11]: notably decrease | AST activity in serum vs model group [3, 11]: notably decrease | protective effect against liver damage induced by carbon tetrachloride (summary) [3]: significant protective effect
